Source: patent US11999770B2, “Peptides and nanoparticle formulations thereof” (University of Bradford, priority 2016, dated 2024)

Columns and labels:
MDA-MB-231 cells [1] = assay: Cytotoxicity / cell viability (MTT assay); format: cell-based, human; details: for activity against the proliferation of MDA MB-231 triple negative breast cancer cells: dosed as nanoparticles
Experimental: Cytotoxicity of an optimised peptide NP formulation (F18) containing peptide of SEQ ID NO: 5 was measured by assessing cell viability (MTT assay). The MDA-MB-231 cells were seeded in 24-well plates (Nalgen Nunc International, Ochester, NY) at a density of 5×10^4 cells per well and incubated for 24 hours to allow for 60-70% confluency and sufficient adhesion. The cells were treated with different concentrations of the peptide-loaded NP, free peptide (SEQ ID NO: 5) and blank NP. After 24, 48, 72 and 96 hours, the treated cells were washed with 500 μl PBS, and 500 μl of 15% MTT dye solution in complete media added to each well. The plates were incubated at 37° C. and 5% CO2 for an additional 3 hours. The supernatant was then discarded, 500 μl DMSO added and the solution vigorously mixed. The optical density of each well was measured at 570 nm (reference wavelength 630 nm) in a microplate reader (Fluostar Omega, BMG Lab Tech GMBH, Germany). This experiment was performed in triplicate and repeated three times. Mean values±SD for each concentration was determined. Percentage cell viability was determined as the ratio of absorbance (570 nm) in treated cells relative to the absorbance in control cells (570 nm). The absorbance of the untreated cells was set at 100%. The IC50 was defined as the concentration of sample needed to reduce the signal by 50% relative to the control.

A549 lung cancer cells = assay: A549 lung cancer cell viability; format: cell-based, human; details: dosed as nanoparticles
MDA-MB-231 cells [2] = assay: Cell cycle analysis (PI flow cytometry); format: cell-based, human
Experimental: To determine the effect of peptide (SEQ ID NO: 5)-loaded NP on cell growth, cultured cells were treated with the same doses of free peptide and peptide-loaded NP as used in the cell viability assay. After 24 and 48 hours of treatment, cells were suspended in PBS and fixed by addition of 70% ice-cold methanol. Cells were treated by adding RNase (1.0 μg ml^−1) to the samples and re-suspending in propidium iodide (PI) stain (5.0 μg ml^−1). PI fluorescence intensity was determined using flow cytometry through a FL-2A filter at 585 nm. Flow-cytometric data were analysed using Cyflogic (v.1.2.1) software. Quantification of apoptotic cells was determined by flow cytometry as the percentage of cells in the sub-G1 region (hypodiploidy) in cell cycle analysis as previously described [PLoS ONE, 6 (2011) e23640].

MDA-MB231 invasion = assay: MDA-MB231 invasion; format: cell-based, human; details: loaded nanoparticles
MDA-MB231 migration = assay: MDA-MB231 migration; format: cell-based, human; details: loaded nanoparticles
[3] = molecular target: T1, RanGDP-RCC1 protein-protein interaction (Homo sapiens, UniProt P18754); assay: Ran activation assay (MDA MB-231 cell lysate, RanBP1 agarose beads); format: biochemical
T1 construct: endogenous in cells; host or cells: MDA MB-231 cell lysate
T1 sequence (P18754 2-421 limits assumed): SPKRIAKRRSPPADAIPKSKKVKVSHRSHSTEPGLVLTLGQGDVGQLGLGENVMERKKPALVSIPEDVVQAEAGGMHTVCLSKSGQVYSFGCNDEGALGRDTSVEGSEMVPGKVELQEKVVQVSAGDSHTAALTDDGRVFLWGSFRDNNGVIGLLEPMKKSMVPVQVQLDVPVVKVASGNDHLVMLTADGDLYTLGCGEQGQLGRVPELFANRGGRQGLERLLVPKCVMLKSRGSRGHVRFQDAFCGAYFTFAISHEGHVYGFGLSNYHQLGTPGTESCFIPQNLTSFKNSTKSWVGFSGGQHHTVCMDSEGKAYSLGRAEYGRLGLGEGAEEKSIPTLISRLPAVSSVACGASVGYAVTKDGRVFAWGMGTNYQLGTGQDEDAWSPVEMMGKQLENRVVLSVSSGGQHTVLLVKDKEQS
Experimental: Lane 1 is positive control for activated Ran complex & Lane 2, MDA MB-231 cell lysate, Lane 3 MDA MB-231 cell lysate loaded with GDP and incubated (negative control) with RanBP1 Agarose beads. Lane 4, MDA MB-231 cell lysate loaded with GTPyS (positive control) incubated with RanBP1 Agarose beads. Lane 5, MDA MB231 cell lysate treated by N-Terminal peptide, Lane 6, MDA MB-231 cell lysate loaded with GD and treated with N-terminal peptide SEQ ID NO: 5, Lane 7, MDA MB231 cell lysate loaded with GTPyS and treated with N-terminal peptide SEQ ID NO: 5 incubated with RanBP1 Agarose beads. […] It can therefore be seen that the N-terminal peptide SEQ ID NO: 5 disturbs the interaction between Ran-RCC1 by direct binding to RCC1.
In this figure, Lane 1 is positive control (activated Ran protein); Lane 2, MDA MB-231 cell lysate; Lane 3 MDA MB-231 cell lysate loaded with GDP and incubated (negative control) with RanBP1 Agarose beads; Lane 4, MDA MB-231 cell lysate loaded with GTPyS (positive control) incubated with RanBP1 Agarose beads; Lane 5, MDA MB-231 cell lysate treated by peptide of SEQ ID 5; Lane 6, MDA MB-231 cell lysate loaded with GD and treated with peptide of SEQ ID 5; and Lane 7, MDA MB-231 cell lysate loaded with GTPyS and treated with peptide of SEQ ID 5 incubated with RanBP1 Agarose beads.

[4] = molecular target: T2, RanGDP-RCC1 protein-protein interaction (Homo sapiens, UniProt P18754); assay: AlphaScreen assay; format: binding; details: in the absence of GTP
T2 sequence (P18754 1-421): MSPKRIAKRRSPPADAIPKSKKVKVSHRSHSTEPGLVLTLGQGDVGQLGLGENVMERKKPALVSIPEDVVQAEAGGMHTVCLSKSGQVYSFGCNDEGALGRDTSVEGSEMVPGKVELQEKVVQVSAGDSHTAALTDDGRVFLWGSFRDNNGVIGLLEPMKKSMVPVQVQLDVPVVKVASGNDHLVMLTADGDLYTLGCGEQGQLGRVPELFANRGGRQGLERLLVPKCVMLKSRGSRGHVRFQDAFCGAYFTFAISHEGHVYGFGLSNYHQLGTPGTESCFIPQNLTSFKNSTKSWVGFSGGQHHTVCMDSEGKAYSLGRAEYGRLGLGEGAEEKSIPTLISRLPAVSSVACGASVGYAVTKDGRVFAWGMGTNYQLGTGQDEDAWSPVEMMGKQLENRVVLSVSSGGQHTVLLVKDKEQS
Description: The direct effect of the inhibitor of SEQ ID NO: 5 on the RanGDP-RCC1 interaction was also studied by AlphaScreen™ assay. This assay employs bead-based chemistry used to study biomolecular interactions in a microplate format, the acronym ALPHA stands for Amplified Luminescent Proximity Homogeneous Assay. In brief, the system uses two photosensitive bead types, a first donor bead that can absorb light from an external light source and a second acceptor bead that can first absorb energy from the donor bead if the beads are in close proximity and then in turn emit light. The Ran protein was attached to the donor bead and the RCC1 protein was attached to the acceptor bead. In the absence of peptide inhibitor the interaction of Ran and RCC1 hold the beads in close proximity and the emission from the acceptor bead is detectable.

[5] = Isoelectric point of the peptide; format: physicochemical

CVDIKDRKVKAKS [SEQ ID NO: 6, Ran positions 124 to 135 with N-terminal Cys]
activity against the proliferation of MDA MB-231 triple negative breast cancer cells (MDA-MB-231 cells [1]): significant activity
activity against the proliferation of A549 lung cancer cells (A549 lung cancer cells): significant activity

CQYEHDLEVAQTTALP [SEQ ID NO: 7, Ran positions 196 to 210 with N-terminal Cys]
activity against the proliferation of MDA MB-231 triple negative breast cancer cells (MDA-MB-231 cells [1]): significant activity
activity against the proliferation of A549 lung cancer cells (A549 lung cancer cells): significant activity

CAQGEPQVQFK [SEQ ID NO: 5]
cytotoxic action (cell viability) (MDA-MB-231 cells [1]; 2, 4 and 8 μM, 24, 48, 72 and 96 hours): no significant cytotoxicity
activity against the proliferation of MDA MB-231 triple negative breast cancer cells (MDA-MB-231 cells [1]): significant activity
growth rate of the cells (MDA-MB-231 cells [2]): not affected
activity against the proliferation of A549 lung cancer cells (A549 lung cancer cells): significant activity
effect on MDA-MB231 invasion (MDA-MB231 invasion): inhibitory effect
effect on MDA-MB231 migration (MDA-MB231 migration): inhibitory effect
effect on Ran-GDP/RCC1 interaction (activated Ran pull-down) [3]: disturbs the interaction between Ran-GDP and RCC1
inhibition of complex formation [4]: 45%
isoelectric point (pI) [5]: around 6.0
